In US20070049564A1 (Wyeth, priority 2005, published 2007):
Values after ≈ are worked out from the molar mass of the structure shown. Read-outs that look alike come from different tables or passages of the source.

Tests used:
S. typhimurium GC 2172 = assay: MIC, broth microdilution; conditions: Salmonella enterica, TYPHIMURIUM
S. aureus GC 6467 = assay: MIC, broth microdilution; conditions: Staphylococcus aureus
E. coli GC 6465 = assay: MIC, broth microdilution; conditions: Escherichia coli
S. aureus GC 6466 = assay: MIC, broth microdilution; conditions: Staphylococcus aureus
E. coli GC 2203 = assay: MIC, broth microdilution; conditions: Escherichia coli
S. epidermidis GC 4935 = assay: MIC, broth microdilution; conditions: Staphylococcus epidermidis
Staph. = assay: Range of MIC for Staph. strains, including MRSA; conditions: Staphylococcus aureus, MRSA
Description: (§1) Antimicrobial susceptibility testing. The in vitro activities of the antibiotics are determined by the broth microdilution method as recommended by the National Committee for Clinical Laboratory Standards (NCCLS) (1). Mueller-Hinton II broth (MHBII)(BBL Cockeysville, Md.) is the medium employed in the testing procedures. Microtiter plates containing serial dilutions of each antimicrobial agent are inoculated with each organism to yield the appropriate density (10^5 CFU/ml) in a 100 μl final volume. The plates are incubated for 18-22 hours at 35° C. in ambient air.
(§2) Representative compounds were first incubated in mouse serum for an hour prior to the in vitro testing against a panel of selected gram-positive and gram-negative bacteria strains. All compounds were also pre-incubated in water for an hour prior to testing as control. Representative compounds of Formula I were incubated in human serum prior to MIC determination.

E. coli GC 2231 = assay: MIC, broth microdilution; conditions: Escherichia coli
E. coli GC 2234 = assay: MIC, broth microdilution; conditions: Escherichia coli
Description: as §1
Representative compounds were first incubated in mouse serum for an hour prior to the in vitro testing against a panel of selected gram-positive and gram-negative bacteria strains. All compounds were also pre-incubated in water for an hour prior to testing as control.

E. coli GC 2236 = assay: MIC, broth microdilution; conditions: Escherichia coli
E. faecalis GC 4555 = assay: MIC, broth microdilution; conditions: Enterococcus faecalis
E. faecium GC 4556 = assay: MIC, broth microdilution; conditions: Enterococcus faecium
S. aureus GC 1079 = assay: MIC, broth microdilution; conditions: Staphylococcus aureus
E. coli GC 2272 = assay: MIC, broth microdilution; conditions: Escherichia coli
Description: as §1, §2

E. faecalis GC 2267 = assay: MIC, broth microdilution; conditions: Enterococcus faecalis
S. pneumoniae* GC 4465 = assay: MIC, broth microdilution; conditions: Streptococcus pneumoniae
E. coli GC 4560 = assay: MIC, broth microdilution; conditions: Escherichia coli
S. aureus GC 1131 = assay: MIC, broth microdilution; conditions: Staphylococcus aureus
E. coli GC 2235 = assay: MIC, broth microdilution; conditions: Escherichia coli
E. coli GC 2233 = assay: MIC, broth microdilution; conditions: Escherichia coli
[1] = read-out: MINIMAL INHIBITORY CONCENTRATION MIC, pre-incubated in Mouse Serum
[2] = read-out: MINIMAL INHIBITORY CONCENTRATION MIC, pre-incubated in Water

## CCCCN(CC(=O)Nc1cc(N(C)C)c2c(c1O)C(=O)C1=C(O)[C@]3(O)C(=O)C(C(N)=O)=C(O)[C@@H](N(C)C)[C@@H]3C[C@@H]1C2)C(=O)OCOC(=O)c1cccs1 [Example 23, ({[(2-{[(5aR,6aS,7S,10aS)-9-(aminocarbonyl)-4,7-bis(dimethylamino)-1,8,10a,11-tetrahydroxy-10,12-dioxo-5,5a,6,6a,7,10,10a,12-octahydrotetracen-2-yl]amino}-2-oxoethyl)(butyl)amino]carbonyl}oxy)methyl thiophene-2-carboxylate]
S. typhimurium GC 2172; [1]
  MIC: 4 µg/mL (≈ 5.2 µM)
S. typhimurium GC 2172; [2]
  MIC: > 64 µg/mL
S. aureus GC 6467; GC6467, read-out: MINIMAL INHIBITORY CONCENTRATION MIC, pre-incubated in Mouse Serum
  MIC: 4 µg/mL (≈ 5.2 µM)
S. aureus GC 6467; GC6467, read-out: MINIMAL INHIBITORY CONCENTRATION MIC, pre-incubated in Water
  MIC: 8 µg/mL (≈ 10.4 µM)
E. coli GC 6465; GC6465, read-out: MINIMAL INHIBITORY CONCENTRATION MIC, pre-incubated in Mouse Serum
  MIC: 4 µg/mL (≈ 5.2 µM)
E. coli GC 6465; GC6465, read-out: MINIMAL INHIBITORY CONCENTRATION MIC, pre-incubated in Water
  MIC: > 64 µg/mL
S. aureus GC 6466; GC6466, read-out: MINIMAL INHIBITORY CONCENTRATION MIC, pre-incubated in Mouse Serum
  MIC: 0.25 µg/mL (≈ 0.325 µM)
S. aureus GC 6466; GC6466, read-out: MINIMAL INHIBITORY CONCENTRATION MIC, pre-incubated in Water
  MIC: 0.5 µg/mL (≈ 0.649 µM)
E. coli GC 2203; GC2203, read-out: MINIMAL INHIBITORY CONCENTRATION MIC, pre-incubated in Mouse Serum
  MIC: 1 µg/mL (≈ 1.3 µM)
E. coli GC 2203; GC2203, read-out: MINIMAL INHIBITORY CONCENTRATION MIC, pre-incubated in Water
  MIC: > 64 µg/mL
S. epidermidis GC 4935; GC4935, read-out: MINIMAL INHIBITORY CONCENTRATION MIC, pre-incubated in Mouse Serum
  MIC: 2 µg/mL (≈ 2.6 µM)
S. epidermidis GC 4935; GC4935, read-out: MINIMAL INHIBITORY CONCENTRATION MIC, pre-incubated in Water
  MIC: 4 µg/mL (≈ 5.2 µM)
Staph.; read-out: Minimum inhibitory concentration (MIC), Staph. (mouse serum)
  MIC: 0.25 to 4 µg/mL (≈ 0.325 to 5.2 µM)
Staph.; read-out: Minimum inhibitory concentration (MIC), Staph. (water)
  MIC: 0.5 to 8 µg/mL (≈ 0.649 to 10.4 µM)
Staph.; read-out: Range of MIC, Staph (Mouse Serum)
  MIC: 0.25 to 4 µg/mL (≈ 0.325 to 5.2 µM)
Staph.; read-out: Range of MIC, Staph (Water)
  MIC: 0.5 to 8 µg/mL (≈ 0.649 to 10.4 µM)
E. coli GC 2231; GC2231, read-out: MINIMAL INHIBITORY CONCENTRATION MIC, pre-incubated in Mouse Serum
  MIC: 2 µg/mL (≈ 2.6 µM)
E. coli GC 2231; GC2231, read-out: MINIMAL INHIBITORY CONCENTRATION MIC, pre-incubated in Water
  MIC: > 64 µg/mL
E. coli GC 2234; GC2234, read-out: MINIMAL INHIBITORY CONCENTRATION MIC, pre-incubated in Mouse Serum
  MIC: 1 µg/mL (≈ 1.3 µM)
E. coli GC 2234; GC2234, read-out: MINIMAL INHIBITORY CONCENTRATION MIC, pre-incubated in Water
  MIC: > 64 µg/mL
E. coli GC 2236; GC2236, read-out: MINIMAL INHIBITORY CONCENTRATION MIC, pre-incubated in Mouse Serum
  MIC: 2 µg/mL (≈ 2.6 µM)
E. coli GC 2236; GC2236, read-out: MINIMAL INHIBITORY CONCENTRATION MIC, pre-incubated in Water
  MIC: > 64 µg/mL
E. faecalis GC 4555; GC4555, read-out: MINIMAL INHIBITORY CONCENTRATION MIC, pre-incubated in Mouse Serum
  MIC: 1 µg/mL (≈ 1.3 µM)
E. faecalis GC 4555; GC4555, read-out: MINIMAL INHIBITORY CONCENTRATION MIC, pre-incubated in Water
  MIC: 4 µg/mL (≈ 5.2 µM)
E. faecium GC 4556; GC4556, read-out: MINIMAL INHIBITORY CONCENTRATION MIC, pre-incubated in Mouse Serum
  MIC: 2 µg/mL (≈ 2.6 µM)
E. faecium GC 4556; GC4556, read-out: MINIMAL INHIBITORY CONCENTRATION MIC, pre-incubated in Water
  MIC: 4 µg/mL (≈ 5.2 µM)
S. aureus GC 1079; GC1079, read-out: MINIMAL INHIBITORY CONCENTRATION MIC, pre-incubated in Mouse Serum
  MIC: 2 µg/mL (≈ 2.6 µM)
S. aureus GC 1079; GC1079, read-out: MINIMAL INHIBITORY CONCENTRATION MIC, pre-incubated in Water
  MIC: 4 µg/mL (≈ 5.2 µM)
E. coli GC 2272; GC2272, read-out: MINIMAL INHIBITORY CONCENTRATION MIC, pre-incubated in Mouse Serum
  MIC: 1 µg/mL (≈ 1.3 µM)
E. coli GC 2272; GC2272, read-out: MINIMAL INHIBITORY CONCENTRATION MIC, pre-incubated in Water
  MIC: > 64 µg/mL
E. faecalis GC 2267; GC2267, read-out: MINIMAL INHIBITORY CONCENTRATION MIC, pre-incubated in Mouse Serum
  MIC: 2 µg/mL (≈ 2.6 µM)
E. faecalis GC 2267; GC2267, read-out: MINIMAL INHIBITORY CONCENTRATION MIC, pre-incubated in Water
  MIC: 8 µg/mL (≈ 10.4 µM)
S. pneumoniae* GC 4465; [1]
  MIC: 0.12 µg/mL (≈ 0.156 µM)
S. pneumoniae* GC 4465; [2]
  MIC: 0.12 µg/mL (≈ 0.156 µM)
E. coli GC 4560; GC4560, read-out: MINIMAL INHIBITORY CONCENTRATION MIC, pre-incubated in Mouse Serum
  MIC: 0.5 µg/mL (≈ 0.649 µM)
E. coli GC 4560; GC4560, read-out: MINIMAL INHIBITORY CONCENTRATION MIC, pre-incubated in Water
  MIC: 8 µg/mL (≈ 10.4 µM)
S. aureus GC 1131; GC1131, read-out: MINIMAL INHIBITORY CONCENTRATION MIC, pre-incubated in Mouse Serum
  MIC: 1 µg/mL (≈ 1.3 µM)
S. aureus GC 1131; GC1131, read-out: MINIMAL INHIBITORY CONCENTRATION MIC, pre-incubated in Water
  MIC: 2 µg/mL (≈ 2.6 µM)
E. coli GC 2235; GC2235, read-out: MINIMAL INHIBITORY CONCENTRATION MIC, pre-incubated in Mouse Serum
  MIC: 1 µg/mL (≈ 1.3 µM)
E. coli GC 2235; GC2235, read-out: MINIMAL INHIBITORY CONCENTRATION MIC, pre-incubated in Water
  MIC: > 64 µg/mL
E. coli GC 2233; GC2233, read-out: MINIMAL INHIBITORY CONCENTRATION MIC, pre-incubated in Mouse Serum
  MIC: 2 µg/mL (≈ 2.6 µM)
E. coli GC 2233; GC2233, read-out: MINIMAL INHIBITORY CONCENTRATION MIC, pre-incubated in Water
  MIC: > 64 µg/mL
